Patent publication US9926302B2, “Heteroaryl substituted heterocyclyl sulfones” (priority 2014, dated 2018)

Molecular target: T1, Human CaV2.2 channels (Homo sapiens, UniProt Q00975)
T1 construct: expressed in transfected cells
Experiment: Fluorescence assay for CaV2.2 channels using potassium depolarization to induce channel opening (FLIPR, Fluo 4)
Assay type: cell-based
Settings: 3 μM test compound; alternative assay buffer 30 mM KCl (inactivated channel state); HEK293 cells stably expressing human CaV2.2
Outline: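 HEK293 cells stably co-expressing CaV2.2 with alpha2-delta and beta subunits plus Kir2.3, loaded with 2 μM Fluo 4 and pre-incubated 15 min at 25° C with compound in 1 mM or 30 mM KCl buffer (pH 7.4; latter promotes inactivated state). Depolarized by KCl addition; peak fluorescence amplitude normalized to baseline gives inhibition.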

T1 sequence (P54289 947-1103): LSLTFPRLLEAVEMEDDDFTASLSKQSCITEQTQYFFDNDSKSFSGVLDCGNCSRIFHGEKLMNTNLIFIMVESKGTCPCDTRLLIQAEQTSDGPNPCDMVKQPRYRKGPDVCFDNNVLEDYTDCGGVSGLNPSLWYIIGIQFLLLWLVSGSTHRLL
T1 sequence (P54289 25-946): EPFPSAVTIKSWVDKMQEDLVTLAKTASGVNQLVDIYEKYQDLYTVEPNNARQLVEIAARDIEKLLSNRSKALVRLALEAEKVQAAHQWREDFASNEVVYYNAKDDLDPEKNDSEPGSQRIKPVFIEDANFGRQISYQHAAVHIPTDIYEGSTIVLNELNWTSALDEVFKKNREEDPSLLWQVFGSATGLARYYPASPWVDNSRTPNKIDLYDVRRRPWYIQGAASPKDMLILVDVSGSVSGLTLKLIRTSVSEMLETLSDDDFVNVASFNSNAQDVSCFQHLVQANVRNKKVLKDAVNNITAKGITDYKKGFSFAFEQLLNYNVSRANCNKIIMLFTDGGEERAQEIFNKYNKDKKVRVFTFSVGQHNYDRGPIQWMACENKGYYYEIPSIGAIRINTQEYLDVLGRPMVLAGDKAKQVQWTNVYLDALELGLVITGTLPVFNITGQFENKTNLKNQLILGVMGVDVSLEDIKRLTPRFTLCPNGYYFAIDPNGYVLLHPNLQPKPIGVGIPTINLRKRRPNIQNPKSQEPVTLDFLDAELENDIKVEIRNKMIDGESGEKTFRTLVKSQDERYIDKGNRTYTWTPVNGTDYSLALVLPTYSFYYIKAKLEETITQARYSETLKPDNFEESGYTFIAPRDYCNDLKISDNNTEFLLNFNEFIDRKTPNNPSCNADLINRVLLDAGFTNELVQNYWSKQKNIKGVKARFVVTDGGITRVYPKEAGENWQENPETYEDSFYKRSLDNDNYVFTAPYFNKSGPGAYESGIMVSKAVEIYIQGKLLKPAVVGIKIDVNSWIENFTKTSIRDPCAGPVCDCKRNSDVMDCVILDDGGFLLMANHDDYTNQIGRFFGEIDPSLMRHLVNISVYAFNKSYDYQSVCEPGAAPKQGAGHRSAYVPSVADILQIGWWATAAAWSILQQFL
T1 sequence (P54284 whole entry, further chain): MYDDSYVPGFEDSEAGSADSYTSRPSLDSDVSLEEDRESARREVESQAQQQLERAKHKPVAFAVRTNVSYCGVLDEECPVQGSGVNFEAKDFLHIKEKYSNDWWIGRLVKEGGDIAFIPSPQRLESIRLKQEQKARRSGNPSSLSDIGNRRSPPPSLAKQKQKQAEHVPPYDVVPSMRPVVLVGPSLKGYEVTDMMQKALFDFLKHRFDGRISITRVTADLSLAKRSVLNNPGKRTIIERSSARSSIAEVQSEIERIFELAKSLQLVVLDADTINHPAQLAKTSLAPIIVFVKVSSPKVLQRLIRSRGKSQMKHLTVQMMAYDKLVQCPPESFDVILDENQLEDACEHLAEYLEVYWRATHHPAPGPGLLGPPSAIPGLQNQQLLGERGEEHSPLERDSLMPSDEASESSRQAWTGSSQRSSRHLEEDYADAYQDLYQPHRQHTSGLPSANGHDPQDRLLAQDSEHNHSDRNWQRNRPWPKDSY
T1 sequence (Q00975 whole entry): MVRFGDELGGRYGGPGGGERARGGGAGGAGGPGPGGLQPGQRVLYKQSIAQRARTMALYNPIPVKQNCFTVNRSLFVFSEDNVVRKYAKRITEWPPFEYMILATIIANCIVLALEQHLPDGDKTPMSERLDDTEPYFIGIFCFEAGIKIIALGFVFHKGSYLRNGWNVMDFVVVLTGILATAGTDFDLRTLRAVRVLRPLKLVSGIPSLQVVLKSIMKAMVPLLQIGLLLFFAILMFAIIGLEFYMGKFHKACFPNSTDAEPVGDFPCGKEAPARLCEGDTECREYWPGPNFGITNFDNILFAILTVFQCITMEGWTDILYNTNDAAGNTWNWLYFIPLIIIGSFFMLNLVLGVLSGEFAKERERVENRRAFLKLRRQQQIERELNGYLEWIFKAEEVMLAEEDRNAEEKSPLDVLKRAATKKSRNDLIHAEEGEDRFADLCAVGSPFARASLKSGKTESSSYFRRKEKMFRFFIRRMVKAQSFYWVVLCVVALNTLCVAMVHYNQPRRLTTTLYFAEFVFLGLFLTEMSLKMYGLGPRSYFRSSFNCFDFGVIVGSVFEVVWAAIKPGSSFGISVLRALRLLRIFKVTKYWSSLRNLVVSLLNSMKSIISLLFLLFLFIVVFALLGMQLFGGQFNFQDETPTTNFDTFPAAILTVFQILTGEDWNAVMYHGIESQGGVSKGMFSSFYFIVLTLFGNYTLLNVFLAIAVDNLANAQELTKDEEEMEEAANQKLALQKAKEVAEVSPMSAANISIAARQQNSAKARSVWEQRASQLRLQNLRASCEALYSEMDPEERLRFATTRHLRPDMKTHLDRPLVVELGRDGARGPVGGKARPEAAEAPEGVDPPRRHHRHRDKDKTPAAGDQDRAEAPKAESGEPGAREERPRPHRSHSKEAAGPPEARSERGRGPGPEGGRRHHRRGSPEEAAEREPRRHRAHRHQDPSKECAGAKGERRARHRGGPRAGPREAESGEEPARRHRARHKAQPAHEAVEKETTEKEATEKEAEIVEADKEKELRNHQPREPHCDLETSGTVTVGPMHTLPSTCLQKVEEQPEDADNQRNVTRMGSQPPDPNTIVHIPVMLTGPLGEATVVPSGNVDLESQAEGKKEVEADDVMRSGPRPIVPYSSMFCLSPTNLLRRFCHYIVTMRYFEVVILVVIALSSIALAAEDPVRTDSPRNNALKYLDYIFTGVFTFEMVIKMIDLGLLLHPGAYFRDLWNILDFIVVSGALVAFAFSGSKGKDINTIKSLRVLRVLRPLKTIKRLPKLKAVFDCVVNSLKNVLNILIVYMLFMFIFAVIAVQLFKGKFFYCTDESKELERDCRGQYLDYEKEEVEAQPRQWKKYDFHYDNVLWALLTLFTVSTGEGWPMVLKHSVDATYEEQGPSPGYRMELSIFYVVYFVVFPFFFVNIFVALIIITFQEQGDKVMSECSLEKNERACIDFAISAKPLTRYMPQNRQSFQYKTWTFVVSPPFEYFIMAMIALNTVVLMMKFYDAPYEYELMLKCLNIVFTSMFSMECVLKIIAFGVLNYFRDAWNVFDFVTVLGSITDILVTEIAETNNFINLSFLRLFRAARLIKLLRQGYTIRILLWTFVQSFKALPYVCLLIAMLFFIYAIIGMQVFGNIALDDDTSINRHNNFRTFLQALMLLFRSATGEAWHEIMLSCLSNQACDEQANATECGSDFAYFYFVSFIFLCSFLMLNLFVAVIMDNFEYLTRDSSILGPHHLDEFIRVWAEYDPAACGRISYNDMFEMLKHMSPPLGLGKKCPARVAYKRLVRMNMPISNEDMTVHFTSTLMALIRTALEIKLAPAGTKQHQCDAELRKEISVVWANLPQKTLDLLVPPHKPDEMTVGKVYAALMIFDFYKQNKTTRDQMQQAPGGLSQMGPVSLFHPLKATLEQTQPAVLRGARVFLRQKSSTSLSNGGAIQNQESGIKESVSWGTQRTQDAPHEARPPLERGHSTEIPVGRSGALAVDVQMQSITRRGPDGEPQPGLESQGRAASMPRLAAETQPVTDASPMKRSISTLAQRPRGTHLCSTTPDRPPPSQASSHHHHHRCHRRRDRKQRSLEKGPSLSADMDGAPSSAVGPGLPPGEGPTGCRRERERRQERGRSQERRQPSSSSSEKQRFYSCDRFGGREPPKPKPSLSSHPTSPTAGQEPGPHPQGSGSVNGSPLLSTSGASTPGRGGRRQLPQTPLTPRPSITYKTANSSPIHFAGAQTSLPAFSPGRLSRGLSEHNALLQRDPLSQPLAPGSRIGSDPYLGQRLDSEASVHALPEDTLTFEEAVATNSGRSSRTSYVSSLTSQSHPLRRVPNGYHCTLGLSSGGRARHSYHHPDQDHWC

Q: How did the “Activity Category: %-Inhib (CaV2.2) @3 μM @30 mM KCl” value (“Activity Category: %-Inhib” below) turn out when `CC1(S(=O)(=O)c2cccc(OC(F)(F)F)c2)CCOC(c2ncc(S(C)(=O)=O)cc2Cl)C1` (stereo not shown) [SC-219, 3-Chloro-5-methylsulfonyl-2-[4-methyl-4-[[3-(trifluoromethyloxy)-phenyl]sulfonyl]-tetrahydro-pyran-2-yl]-pyridine] was run?
A: Its value is “A (%-Inhibition >95%)”.

Q: How did the “Activity Category: %-Inhib” value turn out when `CC1(S(=O)(=O)c2cccc(C(F)(F)F)c2)CCOC(c2ccc(C3CC3)nc2)C1` (stereo not shown) [SC-348, 2-Cyclopropyl-5-[4-methyl-4-[[3-(trifluoromethyl)phenyl]sulfonyl]-tetrahydro-pyran-2-yl]-pyridine] was run?
A: The value was “A (%-Inhibition >95%)”.

Q: For `COc1cc(F)c(C2CC(C)(S(=O)(=O)c3cccc(C(F)(F)F)c3)CCO2)cn1` (stereo not shown) [SC-258, 4-Fluoro-2-methoxy-5-[4-methyl-4-[[3-(trifluoromethyl)phenyl]sulfonyl]-tetrahydro-pyran-2-yl]-pyridine], which “Activity Category: %-Inhib” value is on record?
A: Its value is “A (%-Inhibition >95%)”.

Q: How did the “Activity Category: %-Inhib” value turn out when `Cn1nc(S(C)(=O)=O)cc1C1CC(C)(S(=O)(=O)c2cccc(C(F)(F)F)c2)CCO1` (stereo not shown) [SC-429, 1-Methyl-3-methylsulfonyl-5-[4-methyl-4-[[3-(trifluoromethyl)phenyl]sulfonyl]-tetrahydro-pyran-2-yl]-1H-pyrazole] was run?
A: The value was “C (%-Inhibition >40% up to ≤75%)”.

Same assay, conditions: HEK293, 3 μM test compound; alternative assay buffer 30 mM KCl (inactivated channel state); HEK293 cells stably expressing human CaV2.2; read-out: Activity Category: %-Inhib (CaV2.2) @3 μM @30 mM KCl

Q: Which inhibition at 3 µM does the source give for `CC1(S(=O)(=O)c2cccc(C(F)(F)F)c2)CCOC(c2cnc(C3CC3)nc2)C1` (stereo not shown) [SC-205, 2-Cyclopropyl-5-[4-methyl-4-[[3-(trifluoromethyl)phenyl]sulfonyl]-tetrahydro-pyran-2-yl]-pyrimidine] here?
A: The inhibition at 3 µM was greater than 95%.

Q: `CCC1(S(=O)(=O)c2cccc(C(F)(F)F)c2)CCOC(c2nc(C(F)(F)F)no2)C1` (stereo not shown) [SC-200, 5-[4-Ethyl-4-[[3-(trifluoromethyl)phenyl]sulfonyl]-tetrahydro-pyran-2-yl]-3-(trifluoromethyl)-[1,2,4]oxadiazole] was tested. Which inhibition at 3 µM did it give?
A: The inhibition at 3 µM was 75 to 95%.

Q: For `CC1(S(=O)(=O)c2cccc(C(F)(F)F)c2)CCOC(c2noc(C3CC3)n2)C1` (single isomer, unassigned) [SC-110, 5-Cyclopropyl-3-[4-methyl-4-[[3-(trifluoromethyl)phenyl]sulfonyl]-tetrahydro-pyran-2-yl]-[1,2,4]oxadiazole], which inhibition at 3 µM is on record?
A: Its inhibition at 3 µM is 75 to 95%.

Q: `Cc1cc(S(C)(=O)=O)cnc1C1CC(C)(S(=O)(=O)c2cc(F)cc(C(F)F)c2)CCO1` (stereo not shown) [SC-442, 2-[4-[[3-(Difluoro-methyl)-5-fluoro-phenyl]sulfonyl]-4-methyl-tetrahydro-pyran-2-yl]-3-methyl-5-methylsulfonyl-pyridine] was tested. Which inhibition at 3 µM did it give?
A: Its inhibition at 3 µM is 40 to 75%.

Q: `CC1(S(=O)(=O)c2cccc(C(F)(F)F)c2)CCOC(COc2ccc(C(F)(F)F)nc2)C1` (stereo not shown) [SC-208, 5-[[4-Methyl-4-[[3-(trifluoromethyl)phenyl]sulfonyl]-tetrahydro-pyran-2-yl]-methoxy]-2-(trifluoromethyl)-pyridine] was tested. Which inhibition at 3 µM did it give?
A: Its inhibition at 3 µM is 75 to 95%.

Q: With `CC1(S(=O)(=O)c2cccc(C(F)(F)F)c2)CCOC(c2ccc(N3CCCC3)nc2)C1` (stereo not shown) [SC-400, 5-[4-Methyl-4-[[3-(trifluoromethyl)phenyl]sulfonyl]-tetrahydro-pyran-2-yl]-2-pyrrolidin-1-yl-pyridine] as the compound, how does the inhibition at 3 µM read?
A: Its inhibition at 3 µM is greater than 95%.

Q: For `Cn1nc(C2CC2)cc1C1CC(C)(S(=O)(=O)c2cccc(C(F)(F)F)c2)CCO1` (racemic) [SC-434, 3-Cyclopropyl-1-methyl-5-[4-methyl-4-[[3-(trifluoromethyl)phenyl]sulfonyl]-tetrahydro-pyran-2-yl]-1H-pyrazole], which inhibition at 3 µM is on record?
A: Its inhibition at 3 µM is 75 to 95%.

Q: How did the inhibition at 3 µM turn out when `CC1(S(=O)(=O)c2cccc(C(F)(F)F)c2)CCOC(c2ncc(S(C)(=O)=O)cc2F)C1` (single isomer, unassigned) [SC-119, 3-Fluoro-5-methylsulfonyl-2-[4-methyl-4-[[3-(trifluoromethyl)phenyl]sulfonyl]-tetrahydro-pyran-2-yl]-pyridine] was run?
A: The inhibition at 3 µM was 75 to 95%.

Q: How did the inhibition at 3 µM turn out when `Cc1cc(S(C)(=O)=O)cnc1C1CC(C)(S(=O)(=O)c2cccc(OC(F)(F)F)c2)CCO1` (racemic) [SC-451, 3-Methyl-5-methylsulfonyl-2-[4-methyl-4-[[3-(trifluoromethyloxy)-phenyl]sulfonyl]-tetrahydro-pyran-2-yl]-pyridine] was run?
A: Its inhibition at 3 µM is 40 to 75%.
